In PubChem BioAssay (NCI):
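Five compound concentrations were applied to cells in 96-well plates for 48 hours; endpoints were derived by simple linear interpolation of the resulting dose-response curve. The concentration for 50% growth inhibition is given as GI50. TGI denotes the concentration required for complete inhibition of growth.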

How the values were obtained:
Test in all cases: NCI tumour cell line growth inhibition, 48 h
A498 renal = tested on: A498 renal
HCC-2998 colon = tested on: HCC-2998 colon
LOX IMVI melanoma = tested on: LOX IMVI melanoma
MALME-3M melanoma = tested on: MALME-3M melanoma
MDA-MB-231 breast = tested on: MDA-MB-231 breast
MDA-MB-435 = tested on: MDA-MB-435
MOLT-4 leukemia = tested on: MOLT-4 leukemia
RPMI-8226 leukemia = tested on: RPMI-8226 leukemia
SF-268 CNS = tested on: SF-268 CNS
SR leukemia = tested on: SR leukemia

## CCCC(O)c1cn(C(NC(=O)c2ccccc2)P(=O)(OCC)OCC)nn1 (stereo not drawn)
A498 renal
  TGI: > 100 µM
HCC-2998 colon
  TGI: > 100 µM
LOX IMVI melanoma
  TGI: > 100 µM
MALME-3M melanoma
  TGI: > 100 µM
MDA-MB-231 breast
  TGI: > 100 µM
MDA-MB-435
  TGI: > 100 µM
MOLT-4 leukemia
  TGI: > 100 µM
RPMI-8226 leukemia
  TGI: > 100 µM
SF-268 CNS
  TGI: > 100 µM
SR leukemia
  TGI: > 100 µM

## COC12CCCN1c1ccn(Cc3ccccc3)c(=O)c1C2=O (stereo not drawn)
A498 renal
  TGI: > 100 µM
HCC-2998 colon
  TGI: > 100 µM
LOX IMVI melanoma
  TGI: > 100 µM
MALME-3M melanoma
  TGI: > 100 µM
MDA-MB-231 breast
  TGI: > 100 µM
MDA-MB-435
  TGI: > 100 µM
MOLT-4 leukemia
  TGI: > 100 µM
SF-268 CNS
  TGI: > 100 µM
SR leukemia
  TGI: > 100 µM

## Fc1ccc(N=C/C=C/Nc2ccc(F)cc2)cc1
A498 renal
  TGI: 28.8 µM
HCC-2998 colon
  TGI: 19.5 µM
LOX IMVI melanoma
  TGI: 18.5 µM
MALME-3M melanoma
  TGI: 30.6 µM
MDA-MB-231 breast
  TGI: 30.1 µM
MDA-MB-435
  TGI: 20.8 µM
MOLT-4 leukemia
  TGI: 38.5 µM
RPMI-8226 leukemia
  TGI: 52 µM
SF-268 CNS
  TGI: 27.5 µM
SR leukemia
  TGI: 9.17 µM

## Nc1ccccc1.[C-]#[O+].[C-]#[O+].[C-]#[O+].[C-]#[O+].[C-]#[O+].[Cr]
A498 renal
  GI50: 3 µM
  TGI: 8.28 µM
HCC-2998 colon
  GI50: 6.17 µM
  TGI: > 10 µM
LOX IMVI melanoma
  GI50: 3.15 µM
  TGI: 8.56 µM
MALME-3M melanoma
  GI50: 4.72 µM
  TGI: > 10 µM
MDA-MB-231 breast
  GI50: 5.79 µM
  TGI: > 10 µM
MDA-MB-435
  GI50: 3.67 µM
  TGI: > 10 µM
MOLT-4 leukemia
  GI50: 3.26 µM
  TGI: > 10 µM
RPMI-8226 leukemia
  GI50: 3.39 µM
  TGI: > 10 µM
SF-268 CNS
  GI50: 6.56 µM
  TGI: > 10 µM
SR leukemia
  GI50: 4.64 µM
  TGI: > 10 µM

## COc1cc2oc(=O)cc(C)c2cc1O
A498 renal
  TGI: > 100 µM
HCC-2998 colon
  TGI: > 100 µM
LOX IMVI melanoma
  TGI: > 100 µM
MALME-3M melanoma
  TGI: > 100 µM
MDA-MB-231 breast
  TGI: > 100 µM
MDA-MB-435
  TGI: > 100 µM
MOLT-4 leukemia
  TGI: > 100 µM
RPMI-8226 leukemia
  TGI: > 100 µM
SF-268 CNS
  TGI: > 100 µM
SR leukemia
  TGI: > 100 µM

## COC(=O)C1=C(OC(=O)/C=C/c2ccccc2)C(C(=O)OC)[C@@]2(O)[C@@H](C(=O)OC)[C@H](C)C[C@@H]1[C@@H]2C(=O)OC (stereo partly drawn)
A498 renal
  TGI: 36.7 µM
HCC-2998 colon
  TGI: 48.7 µM
LOX IMVI melanoma
  TGI: 93.2 µM
MALME-3M melanoma
  TGI: 65.5 µM
MDA-MB-231 breast
  TGI: 43.9 µM
MDA-MB-435
  TGI: > 100 µM
MOLT-4 leukemia
  TGI: > 100 µM
RPMI-8226 leukemia
  TGI: > 100 µM
SF-268 CNS
  TGI: 92 µM
SR leukemia
  TGI: > 100 µM

## CCCCCc1cc2cc3c(c(O)c2c(=O)[nH]1)C1(CCC3)C(O)=c2c(=O)c3c(=O)cc(OC)c(=O)c=3c(=O)c2=C1O (stereo not drawn)
A498 renal
  TGI: 4.58 µM
HCC-2998 colon
  TGI: 4.42 µM
LOX IMVI melanoma
  TGI: 2.85 µM
MALME-3M melanoma
  TGI: 2.95 µM
MDA-MB-231 breast
  TGI: 4.28 µM
MDA-MB-435
  TGI: 3.13 µM
MOLT-4 leukemia
  TGI: 4.01 µM
RPMI-8226 leukemia
  TGI: > 18.7 µM
SF-268 CNS
  TGI: 3.63 µM
SR leukemia
  TGI: 4.27 µM

## COC(=O)CCc1ccc2c(c1)C(=O)CC2
A498 renal
  TGI: > 100 µM
HCC-2998 colon
  TGI: > 100 µM
LOX IMVI melanoma
  TGI: > 100 µM
MALME-3M melanoma
  TGI: > 100 µM
MDA-MB-231 breast
  TGI: > 100 µM
MDA-MB-435
  TGI: > 100 µM
MOLT-4 leukemia
  TGI: > 100 µM
RPMI-8226 leukemia
  TGI: > 100 µM
SF-268 CNS
  TGI: > 100 µM
SR leukemia
  TGI: > 100 µM

## C=C1C(=O)O[C@H]2[C@H]3O[C@@H](C[C@@H]12)[C@@]1(C)CC[C@H](O1)[C@H](C)CCC[C@H]3C
A498 renal
  TGI: 3.17 µM
HCC-2998 colon
  TGI: 2.57 µM
LOX IMVI melanoma
  TGI: 2.94 µM
MALME-3M melanoma
  TGI: 3.24 µM
MDA-MB-231 breast
  TGI: 3.12 µM
MDA-MB-435
  TGI: 2.61 µM
RPMI-8226 leukemia
  TGI: 2.35 µM
SF-268 CNS
  TGI: 3.34 µM
SR leukemia
  TGI: 0.448 µM

## CCOC(=O)c1sc2nc(SC)nc3c2c1NCN3c1ccc(F)c(F)c1
A498 renal
  TGI: 35.6 µM
HCC-2998 colon
  TGI: > 64 µM
LOX IMVI melanoma
  TGI: > 60.1 µM
MALME-3M melanoma
  TGI: > 49.1 µM
MDA-MB-231 breast
  TGI: 46.2 µM
MDA-MB-435
  TGI: 41.7 µM
MOLT-4 leukemia
  TGI: > 100 µM
RPMI-8226 leukemia
  TGI: > 100 µM
SF-268 CNS
  TGI: > 100 µM
SR leukemia
  TGI: > 100 µM

## Cc1c(-c2ccccc2)nn2cc(-c3ccccc3)nnc12
A498 renal
  TGI: > 100 µM
HCC-2998 colon
  TGI: 34 µM
LOX IMVI melanoma
  TGI: 41.1 µM
MALME-3M melanoma
  TGI: 39.6 µM
MDA-MB-231 breast
  TGI: 62.9 µM
MDA-MB-435
  TGI: > 100 µM
MOLT-4 leukemia
  TGI: > 100 µM
RPMI-8226 leukemia
  TGI: > 100 µM
SF-268 CNS
  TGI: > 100 µM
SR leukemia
  TGI: > 100 µM

## COc1ccc(NC(=O)CC(=O)n2nc(C)c(N=Nc3cccc(C)c3)c2C)cc1
A498 renal
  TGI: > 100 µM
HCC-2998 colon
  TGI: > 100 µM
LOX IMVI melanoma
  TGI: > 100 µM
MALME-3M melanoma
  TGI: > 100 µM
MDA-MB-231 breast
  TGI: > 100 µM
MDA-MB-435
  TGI: > 100 µM
MOLT-4 leukemia
  TGI: > 100 µM
RPMI-8226 leukemia
  TGI: > 100 µM
SF-268 CNS
  TGI: > 100 µM
SR leukemia
  TGI: > 100 µM

## COc1ccc(/C=C/C(=O)c2cc(C(C)(C)C)c(O)c(C(C)(C)C)c2)cc1OC
A498 renal
  TGI: > 79.7 µM
HCC-2998 colon
  TGI: 7.74 µM
LOX IMVI melanoma
  TGI: 29.3 µM
MALME-3M melanoma
  TGI: > 100 µM
MDA-MB-231 breast
  TGI: 51.6 µM
MDA-MB-435
  TGI: 21.2 µM
MOLT-4 leukemia
  TGI: > 49.6 µM
RPMI-8226 leukemia
  TGI: 12.8 µM
SF-268 CNS
  TGI: > 67.7 µM
SR leukemia
  TGI: 5.83 µM

## C(=N\Nc1ccc(-c2nc3ccccc3[nH]2)cc1)/c1c(-c2ccc(Cc3ccccc3)cc2)[nH]c2ccccc12
A498 renal
  TGI: 33.3 µM
HCC-2998 colon
  TGI: 30.9 µM
LOX IMVI melanoma
  TGI: 23 µM
MALME-3M melanoma
  TGI: 23.2 µM
MDA-MB-231 breast
  TGI: 60.6 µM
MDA-MB-435
  TGI: > 27.4 µM
MOLT-4 leukemia
  TGI: > 37.3 µM
RPMI-8226 leukemia
  TGI: > 32.5 µM
SF-268 CNS
  TGI: 10 µM
SR leukemia
  TGI: > 100 µM

## CCN(CC)C(=S)Nc1ccc(-c2cc3ccc(O)cc3oc2=O)cc1
A498 renal
  TGI: 96.5 µM
HCC-2998 colon
  TGI: 39.8 µM
LOX IMVI melanoma
  TGI: > 100 µM
MALME-3M melanoma
  TGI: 69.2 µM
MDA-MB-231 breast
  TGI: > 100 µM
MDA-MB-435
  TGI: > 100 µM
MOLT-4 leukemia
  TGI: > 100 µM
RPMI-8226 leukemia
  TGI: 95.8 µM
SF-268 CNS
  TGI: > 100 µM
SR leukemia
  TGI: 93.5 µM

## CSCCCS/C1=C/CCCCCCCCCC1
A498 renal
  TGI: > 100 µM
HCC-2998 colon
  TGI: > 100 µM
LOX IMVI melanoma
  TGI: > 100 µM
MALME-3M melanoma
  TGI: > 100 µM
MDA-MB-231 breast
  TGI: > 100 µM
MDA-MB-435
  TGI: > 100 µM
MOLT-4 leukemia
  TGI: > 100 µM
RPMI-8226 leukemia
  TGI: > 100 µM
SF-268 CNS
  TGI: > 100 µM
SR leukemia
  TGI: > 100 µM
